Test results taken from the supplement of paper PMC11997997.

Experiments:
[1] = system: Mycobacterium tuberculosis CDC1551 (intracellular, in murine BMDM); assay: area under intracellular growth-inhibition dose-response curve (AUC (% inhibition x dose, relative)); higher = more potent; conditions: duration: 6 days; dose range: 0.13-80 uM, 8 points
Outline: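 Macrophages derived from primary murine bone marrow were infected for 1 h at multiplicity of infection 1 with luciferase-expressing M. tuberculosis CDC1551, then treated for 6 days at final concentrations of 80–0.13 μM. Bright-Glo luciferin signal, normalised to a reference drug control and the lowest-concentration wells, gave the growth readout. Area under the growth-inhibition dose–response curve was then calculated in GraphPad Prism.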

[2] = system: murine bone marrow-derived macrophages; assay: area under cytotoxicity dose-response curve (AUC (% cytotoxicity x dose, relative)); higher = more cytotoxic; conditions: duration: 6 days; dose range: 0.13-80 uM, 8 points
Outline: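 Primary murine bone marrow-derived macrophages in opaque 384-well plates were exposed to an 8-point, 2.5-fold dilution series (final 80–0.13 μM) for 6 days at 37 °C in 5% CO2. Viability was read with Promega's CellTiter-Glo luminescence assay, and percent cytotoxicity was normalised to vehicle and positive control wells. Cytotoxicity is reported as the area under the dose–response curve, calculated in GraphPad Prism version 10.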

Row | SMILES | area under intracellular growth-inhibition dose-response curve [1] | area under cytotoxicity dose-response curve [2]
1 | Cc1nnc(NCc2cccc(Cl)c2)c2ccccc12 | 211 | 128
2 | CC(=O)c1cc(NC(=O)c2cccc(C(F)(F)F)c2)c(=O)oc1/C=C/N(C)C | 194 | 64.4
3 | COc1ccccc1OCC(=O)N/N=C/C=C/c1ccc([N+](=O)[O-])o1 | 73.2 | < 0
4 | COc1cc2c(cc1OC)CN(C(=O)c1ccc([N+](=O)[O-])o1)CC2 | 101 | 37
5 | CS(=O)(=O)Nc1ccccc1C(=O)OCC(=O)N1CCC(c2ccccc2)=N1 | 115 | < 0
6 | CC(C)/N=c1\cc2n(-c3ccc(Cl)cc3)c3ccccc3nc-2cc1Nc1ccc(Cl)cc1 | 208 | 73.5
7 | COc1ccc(OCC(=O)NC(=S)Nc2ccc(N3CCOCC3)c(Cl)c2)cc1 | 173 | 123
8 | CCCCCOc1ccc(C(=O)CCC(=O)NNC(=O)c2ccncc2)cc1 | 224 | 75.4
9 | CCOc1ccc(CCNC(=O)c2ccc3c(=O)[nH]c4c(C(=O)NC(C)C)sc(=S)n4c3c2)cc1 | 225 | 10.1
10 | C/C(=N/NC(=O)c1ccncc1)c1ccc2c(c1)OCO2 | 257 | 13.8
11 | Cl.c1ccc(-c2nc(NCCCn3ccnc3)c3oc4ccccc4c3n2)cc1 | 172 | 34.7
12 | COc1ccc(/C=N/NC(=O)c2ccncc2)cc1COc1ccc(NC(C)=O)cc1 | 272 | 14.4
13 | O=C(N/N=C\c1ccc([N+](=O)[O-])o1)C1COc2ccccc2O1 (configuration not stated) | 203 | 10.7
14 | CC(C)C(=O)N1CCN(c2ccc(NC(=O)c3ccc([N+](=O)[O-])o3)cc2Cl)CC1 | 109 | 79.8
15 | Cc1cc(NS(=O)(=O)c2ccc(NC(=S)Nc3ccc(Cl)cc3C)cc2)no1 | 102 | 7.59
16 | O=C(NC1CCCC1)c1cc2ccccc2o1 | 225 | 56.4
17 | Cc1cc(OCCCCn2ccnc2)cc(C)c1Cl.Cl | 174 | 24
18 | Cc1ccc(C(=O)N2CCN(c3ccc(NC(=S)NC(=O)c4cccs4)cc3)CC2)cc1 | 275 | < 0
19 | Clc1cnc(N/N=C/c2ccco2)c(Cl)c1 | 189 | 93.8
20 | O=C(NCc1ccco1)c1csc2c1CCCCC2 | 212 | 55.5
21 | CN1CCN2c3ccccc3Cc3ccccc3C2C1.Cl (configuration not stated) | 118 | < 0
22 | O=C(c1cc2ccccc2o1)N1CCN(Cc2ccc3c(c2)OCO3)CC1 | 172 | 68.3
23 | Cn1ncc2cc(NC(N)=S)ccc21 | 196 | < 0
24 | Cc1[nH]c2ccccc2c1/C=N/NC(N)=S | 131 | 102
25 | O=C(/C=C/c1cn(CC(O)CN2CCCCCC2)c2ccccc12)c1cccs1 (configuration not stated) | 96.5 | < 0
26 | O=C(CCC1CCCCC1)NCc1ccccn1 | 222 | 3

Row | SMILES | area under intracellular growth-inhibition dose-response curve [1] | area under cytotoxicity dose-response curve [2]
27 | On1c(-c2ccc(Cl)cc2)nc2ccccc21 | 63.1 | 124
28 | COc1ccc(CCNC2=C(Cl)C(=O)N(CCc3ccc(OC)c(OC)c3)C2=O)cc1OC | 66.8 | 92.7
29 | O=C(NCC(c1cccs1)N1CCOCC1)c1cc([N+](=O)[O-])cc([N+](=O)[O-])c1 (configuration not stated) | 276 | 20.1
30 | O=C(COc1ccccc1)NCc1cccs1 | 130 | 14.2
31 | CCOC(=O)c1oc2nc(C(C)C)c3c(c2c1N)CC(C)(C)OC3 | 124 | 80.3
32 | CCC(=O)N1CCN(c2ccc(NC(=S)NC(=O)COc3ccccc3)cc2)CC1 | 194 | 76.2
33 | CNc1nc(N2CCc3ccccc32)ncc1F | 140 | < 0
34 | C/C(Cn1nnc([N+](=O)[O-])n1)=N\NC(=O)c1ccncc1 | 271 | < 0
35 | O=C(COC(=O)c1cc(Cl)nc(Cl)c1)NCCc1ccc(F)cc1 | 108 | 4.71
36 | O=C(NCc1ccc2c(c1)OCO2)c1ccc(Br)o1 | 174 | 76.4
37 | NC(=S)c1cn(C2OC(CO)C(O)C2O)c2ncnc(N)c12 (configuration not stated) | 70.2 | 36.6
38 | CC(=O)OCC1=C(C(=O)O)N2C(=O)C(NC(=O)Cn3nc(C(F)F)c(Cl)c3C)C2SC1 (configuration not stated) | 195 | 2.26
39 | O=C(N/N=C/c1cccn1-c1ccccc1)c1ccncc1 | 251 | 57.4
40 | Nc1c2c(nc3sc4c(c13)CCCCC4)CCCC2 | 171 | 14.6
41 | CCc1nnc(NS(=O)(=O)c2ccc(N/C=C3/C(=O)NC(=O)N(c4ccccc4)C3=O)cc2)s1 | 31 | 38
42 | CC1CCC(NC(=O)c2ccc3c(c2)OCO3)CC1 (configuration not stated) | 218 | < 0
43 | CCOc1ccc2ccccc2c1/C=N/NC(=O)c1ccncc1 | 270 | < 0
44 | Cc1cc(OCC(=O)N2CCCC2)cc(C)c1Cl | 254 | < 0
45 | Nc1ccc(C(=O)[O-])c(O)c1.O.[Na+] | 184 | 0.704
46 | Cc1ccc2nc(-c3ccc(NC(=S)NC(=O)C(C)C)cc3)sc2c1 | 174 | 32.6
47 | CC1CCc2c(nc3sc4c(c3c2N)CCCC4)C1 (configuration not stated) | 206 | 60.7
48 | Cc1ccc(-c2nn(-c3ccccc3)cc2/C=N/NC(=O)c2ccncc2)o1 | 261 | 48.7
49 | O=C(CSc1ccc(Cl)cc1)NNC(=O)c1ccncc1 | 241 | 107
50 | C/C(CC(=O)Nc1ccc(C)c(Cl)c1)=N\NC(=O)c1ccncc1 | 272 | < 0
51 | CSCCC(NC(=O)c1ccccc1Br)C(=O)NNC(=O)c1ccncc1 (configuration not stated) | 244 | 12.7
